Results published in US20130295578A1, “METHODS FOR SCREENING FOR DRUG RESISTANCE IN CANCER TREATMENT” (TRUSTEES OF DARTMOUTH COLLEGE, priority 2011, published 2013).

Tests used:
[1] = system: BT474 breast cancer cells; conditions: 3D culture, trastuzumab resistance; cited from earlier work
COLO-357 cells [2] = conditions: for EGF/TGF-β1-induced growth stimulation: 1 nM EGF + 100 pM TGF-β1, inhibitor pre-incubated or added concomitantly
Protocol: An equal volume of cell suspension and ice-chilled 6% Matrigel™ (BD biosciences, San Jose, Calif.) in complete medium (RPMI 1640 supplemented with 5% FBS and 1× penicillin/streptomycin) were mixed and dispensed at: 5-15×10^3 cells in 1000 μl per well of 12-well plates or 3-10×10^3 cells in 200 μl per well of 48-well plates on top of a solidified 1% noble agar layer (Difco, Sparks, Md.). Ice-chilled 3% Matrigel™ in complete medium was used to replenish medium every 4 days and/or to administer compounds.
After 4 hours of staining with 2.5 mg/ml of 3-(4,5-Dimethylthiazol-2-yl)-2,5-diphenyltetrazolium bromide (MTT; Sigma) in PBS, plates were scanned and images were stored as high resolution (1200 dpi) grayscale TIFF files. Signal intensity and density was quantified using Image-Pro Plus (Media Cybernetics, Bethesda, Md.).

PK-1 and PK-2 cells = assay: modified extracellular matrix-based 3D culture; format: cell-based, murine; conditions: kinase inhibitor present
Protocol: (§1) Murine pancreatic tissue from euthanized animals was mechanically minced and digested with 2 mg/ml of Collagenase Type 4 (Worthington, Lakewood, N.J.) for 1 hour at 37° C. For ex vivo primary cell culture, 10,000 cells per well of 48-well plate were immediately plated in 3% Matrigel™ as described above, except for this modification: RPMI 1640 medium was supplemented with 20% FBS, 1× penicillin/streptomycin and 25 ng/mL amphotericin B (MP Biomedicals, LLC, Solon, Ohio). For secondary cell cultures from tumor lesions of mouse models, cancer (epithelial) cells were selected by carrying out several rounds of diluted plating in RPMI 1640 medium, with a gradual decrease concentration of FBS from 20% to 5%: PK-1 and RInk-1, as previously reported (Seeley et al. 2009. Cancer Res. 69:422-430), or after subcutaneous passage in nude mice (PK-2 and RInk-2). Experiments were conducted with epithelial cells within less than 20 passages.

PK-2 cells [3] = assay: modified extracellular matrix-based 3D culture, MTT readout; format: cell-based, murine; conditions: for EGF/TGF-β1-induced growth stimulation: 1 nM EGF + 100 pM TGF-β1, inhibitor pre-incubated or added concomitantly; for chemoresistance to treatment: PK-2 compared with COLO-357, at the tested concentrations
Protocol: as §1

PK; p16/p19Δ/Δ cells = assay: ex vivo primary cell 3D culture of PDAC mouse model tumor cells; format: cell-based; conditions: p16/p19Δ/Δ tumor-derived cells
Protocol: (§2) To assess tissue response to different chemotherapeutic treatments, tumor tissues were digested with collagenase to obtain single cell suspensions for accurate cell counting and equal cell seeding in replica experimental wells.
as §1

PK; p53Δ/Δ cells = assay: as above; format: cell-based; conditions: p53Δ/Δ tumor-derived cells
Protocol: as §2, §1

PDAC patients = conditions: cited from earlier work
COLO-357 cells [4] = assay: culture on tissue culture-treated plastic plates, morphology and immunostaining; format: cell-based, human
Description: (§3) To further investigate the effects of extracellular matrix components on integration of growth factor signals in both human and murine pancreatic cancer cells, cellular responses were compared on conventional tissue culture-treated plastic plates and in 3% Matrigel™. […] Thus, cells loosened their tightly packed cobble-stone like arrangement, became more motile and acquired an elongated fibroblast-like shape. […] This effect was not observed in T3M4 cells, whereas the distribution of the cytoskeleton protein tubulin (control marker) was uniform across all epithelial structures. Increased vimentin expression was not observed in these cellular structures.
(§4) Cells cultured in 3% Matrigel™ were collected 4 days after treatment on a 40 μm sieve mesh using chilled PBS to loosen Matrigel™ matrix, fixed in 10% formalin for 1 hour and coated with melted 1% noble agar. Agar plugs were fixed for up to 4 hours in formalin and paraffin-embedded in fully-automated Shandon Pathcentre instrument as described previously (Sempere et al. 2010. Clin Cancer Res. 16:4246-4255). For freshly fixed cell assays, cells were seeded at 2-5×10^3 per well on 48-well plates, treated after 24 hours and collected 48 hours after treatments by rinsing with chilled PBS and fixed in 10% formalin for 30 minutes. Four μm sections of cellular structures in paraffin-embedded or freshly fixed cells were immunostained using antibody conditions and sequential tyramide signal amplification reactions as previously described (Sempere et al. 2010. Clin Cancer Res. 16:4246-4255).

COLO-357 cells [5] = assay: anchorage-independent growth in soft agar culture; format: cell-based, human; conditions: COLO-357, soft agar
PK-2 cells [6] = assay: culture on tissue culture-treated plastic plates, morphology and immunostaining; format: cell-based, murine
Description: as §3, §4

[7] = system: ASPC-1, BxPC3 and T3M4 cells; assay: modified extracellular matrix-based 3D culture, growth factor stimulation; format: cell-based, human
Protocol: (§5) To determine how pancreatic cancer cells would integrate potential interactions between EGF and TGF-β1 signals, cells were treated four days after seeding in 3% Matrigel™ with TGF-β1 at a final concentration of 100 pM and/or EGF at 1 nM. […] The growth of ASPC-1, BxPC3 and T3M4 was not affected by TGFB-β1 treatment.

[8] = system: PK-1, PK-2 and RInk-2 cells; assay: as above; format: cell-based, murine
Protocol: as §5, §1

CC(C)(C)n1nc(-c2ccc(Cl)cc2)c2c(N)ncnc21 [PP2]
activation of PI3K/AKT pathway and chemoresistant effects of TGF-β [1]: prevented activation of PI3K/AKT pathway and disrupted chemoresistant effects of TGF-β

C[S+]([O-])c1ccc(-c2nc(-c3ccncc3)c(-c3ccc(F)cc3)[nH]2)cc1 (centres unmarked) [SB203580]
EGF/TGF-β1-induced growth stimulation (COLO-357 cells [2]; COLO-357, 3D culture): mild inhibitory effect | stimulatory growth effects of EGF/TGF-β1 (PK-1 and PK-2 cells): mild effect

NC(=O)c1ccc(-c2nc(-c3ccc4c(c3)OCO4)c(-c3ccccn3)[nH]2)cc1 [SB431542]
EGF/TGF-β1-induced growth stimulation (COLO-357 cells [2]; COLO-357, 3D culture): significantly decreased | EGF/TGF-β1-induced growth stimulation, late inhibitor addition (COLO-357 cells [2]; COLO-357, inhibitor added 4 days following incubation with EGF/TGF-β1): halted further growth stimulation | EGF/TGF-β1-induced growth stimulation (PK-2 cells [3]; PK-2, 3D culture): significantly decreased | EGF/TGF-β1-induced growth stimulation, late inhibitor addition (PK-2 cells [3]; PK-2, inhibitor added 4 days following incubation with EGF/TGF-β1): halted further growth stimulation

N#CC(=C(/N)Sc1ccccc1N)/C(C#N)=C(\N)Sc1ccccc1N [U0126]
EGF/TGF-β1-induced growth stimulation (COLO-357 cells [2]; COLO-357, 3D culture): mild inhibitory effect | stimulatory growth effects of EGF/TGF-β1 (PK-1 and PK-2 cells): moderate effect | protective effects of EGF/TGF-β1 against gemcitabine and cisplatin (PK-2 cells [3]; PK-2, 3D culture, concomitant inhibitor treatment): markedly effective only in PK-2 cells

N.N.[Cl][Pt][Cl] [cisplatin, cis-diamminedichloroplatinum]
number and size of cellular structures in 3D culture (PK; p16/p19Δ/Δ cells): reduced the number and size of cellular structures | number and size of cellular structures in 3D culture (PK; p53Δ/Δ cells): reduced the number and size of cellular structures | chemoresistance to treatment (PK-2 cells [3]): more chemoresistant

C#Cc1cccc(Nc2ncnc3cc(OCCOC)c(OCCOC)cc23)c1 [erlotinib]
EGF/TGF-β1-induced growth stimulation (COLO-357 cells [2]; COLO-357, 3D culture): significantly decreased | additional increase in survival (PDAC patients; addition to gemcitabine as first-line PDAC treatment): 12 days | EGF/TGF-β1-induced growth stimulation (PK-2 cells [3]; PK-2, 3D culture): significantly decreased

Nc1ccn([C@@H]2O[C@H](CO)[C@@H](O)C2(F)F)c(=O)n1 [gemcitabine]
cytotoxic effect (COLO-357 cells [2]; human, 4 days, 10 nM): killed most COLO-357 cells | number and size of cellular structures in 3D culture (PK; p16/p19Δ/Δ cells): reduced the number and size of cellular structures | number and size of cellular structures in 3D culture (PK; p53Δ/Δ cells): reduced the number and size of cellular structures | prolongation of life (PDAC patients; PDAC): about 8 weeks | chemoresistance to treatment (PK-2 cells [3]): more chemoresistant

TGF-β1: transforming growth factor-β isoform 1, used at 100 pM
E-cadherin and vimentin immunostaining (COLO-357 cells [4]; COLO-357, on plastic, after TGF-β1 treatment): loss of membranous E-cadherin (epithelial marker) and upregulation of intermediate filament vimentin (mesenchymal marker) | TGF-β1 concentration giving limited morphological changes (COLO-357 cells [4]; COLO-357, plastic culture): 20 pM | TGF-β1 concentration giving overt morphological changes (COLO-357 cells [4]; COLO-357, plastic culture): 200 pM | E-cadherin immunostaining (COLO-357 cells [2]; COLO-357, 3D culture): reduced membranous localization of E-cadherin | lowest concentration at which morphological changes were observed (COLO-357 cells [2]; COLO-357, 3D culture): 1 pM | morphology (COLO-357 cells [2]; COLO-357, 3D culture, 100 pM TGF-β1): profound morphological changes | growth stimulatory effects of EGF (COLO-357 cells [2]; COLO-357, 3D culture, TGF-β1 added to EGF): greatly enhanced | growth (COLO-357 cells [2]; COLO-357, 3D culture, growth factor treatment): mild growth stimulatory effects | size of cellular structures under cisplatin or gemcitabine challenge (COLO-357 cells [2]; COLO-357, growth factor-treated, after 4 and 8 days of incubation): > 5 cells | size and number of colonies (COLO-357 cells [5]): decreased the size and number of colonies | growth promoting effects of EGF (COLO-357 cells [5]; TGF-β1 added to EGF): antagonized | E-cadherin and vimentin immunostaining (PK-2 cells [6]; PK-2, on plastic, after TGF-β1 treatment): loss of membranous E-cadherin (epithelial marker) and upregulation of intermediate filament vimentin (mesenchymal marker) | TGF-β1 concentration giving limited morphological changes (PK-2 cells [6]; PK-2, plastic culture): 20 pM | TGF-β1 concentration giving overt morphological changes (PK-2 cells [6]; PK-2, plastic culture): 200 pM | E-cadherin immunostaining (PK-2 cells [3]; PK-2, 3D culture): reduced membranous localization of E-cadherin | lowest concentration at which morphological changes were observed (PK-2 cells [3]; PK-2, 3D culture): 1 pM | growth ([7]; 100 pM TGF-β1): not affected | proliferative actions of EGF ([7]; TGF-β1 added to EGF): did not affect | morphology ([8]; 100 pM TGF-β1): profound morphological changes | growth ([8]; growth factor treatment four days after seeding): dramatically enhanced the growth
